# Experimental data published in publication PMC12057341, “In vitro pharmacokinetic/pharmacodynamic modeling of the effect of mucin on polymyxin B activity against Acinetobacter baumannii” (Antimicrobial Agents and Chemotherapy, 2025).
# Where a SMILES comes first, the peptide text is derived from it. Bridges are numbered along the chain shown (N, C = ends). [ ]: non-standard residue; d: D form. The star is where a group is joined. X1 = CC[C@H](C)CCCCC(=O)*; Dab = NCC[C@H](N)C(=O)O
# Tests used:
# [1] = test system: mucin from the porcine stomach; assay: PMB binding to mucin by ultracentrifugation in CAMHB with 1% mucin; assay type: in vitro ADME; set-up: Unbound conc.: unit not given here; details: CAMHB + 1% mucin
# Procedure: Mucin from the porcine stomach was obtained from Sigma-Aldrich (Merck KGaA, Saint-Quentin Fallavier, France) and solubilized in NaCl 0.9% to obtain a solution at 20% (pH adjusted to 7). The solution was autoclaved at 110°C for 15 minutes.
# PMB solutions at concentrations ranging from 0.5 to 10,000 mg/L in CAMHB with 1% mucin were incubated for 1 h at 35°C, then ultracentrifuged at ~290 000 g for 5 h at room temperature (Beckman Optima LE-80K, rotor: Beckman Coulter 70.1 Ti), according to a method previously described ([35]). Unbound PMB concentrations in the supernates were determined by LC-MS/MS (method adapted from a previous publication ([36]) and detailed in Supplemental material) and used to determine the unbound fraction (fu) of PMB. Potential PMB sedimentation ([37]) during experimentation was determined from PMB solutions prepared in mucin-free CAMHB and subjected to the same ultracentrifugation conditions as previously described, and then used to correct for unbound PMB concentrations.
# The same procedure was performed with a nonautoclaved mucin solution. Experiments were done in triplicate.
# The relationship between fu and PMB total concentrations was modeled according to a sigmoidal Emax function (equation 1):
# (1) fu=E0+ Imax × C^ε/IC50ε+ C^ε,
# where E0 represents the minimum fu, Imax the maximum increase in fu, IC50 (mg/L) corresponds to PMB total concentration needed to reach 50% of Imax, C (mg/L) to the PMB total concentration, and ε to the Hill coefficient.
# Parameter estimation was performed using nonlinear regression with iteratively reweighted least squares (R, version 4.1.3 – Package: robustbase, version 0.99–0). Two sets of parameters were estimated, one for the data generated with autoclaved mucin, another for the data generated without autoclave. The two sets of parameters were compared using ANOVA testing.
# [2] = test system: Acinetobacter baumannii AB122-D12; assay: MIC at the end (T30h) of TK experiments after regrowth, AB122-D12; assay type: cell-based
# Procedure: PMB MICs of both A. baumannii strains were determined in commercial CAMHB (BioMérieux, Marcy-l’Etoile, France) according to the European Committee on Antimicrobial Susceptibility Testing and Clinical and Laboratory Standards Institute (CLSI) recommendations ([33], [34]). PMB MICs of the two A. baumannii isolates were also determined at least in duplicate in CAMHB supplemented with 1% of mucin.
# Samples were centrifuged (8 minutes at 8,000 rpm); then, the supernates were removed, and the pellets were stored at −80°C in CAMHB-glycerol 20%. A minimum bacterial density of ~10^5 CFU/mL in samples collected at the end of TK experiments was required for MIC susceptibility testing and sequencing.
# Prior to MIC testing, the isolates were streaked onto a drug-free Mueller-Hinton agar plate and incubated for 24 h.
# [3] = simulated with equation 1, non-autoclaved mucin parameters, total conc. 10
# [4] = simulated with equation 1, non-autoclaved mucin parameters, total conc. 50
# [5] = simulated with equation 1, non-autoclaved mucin parameters, total conc. 100
# [6] = simulated with equation 1, non-autoclaved mucin parameters, total conc. 500
# [7] = simulated with equation 1, non-autoclaved mucin parameters, total conc. 1000
# [8] = simulated with equation 1, non-autoclaved mucin parameters, total conc. 5000
# [9] = simulated with equation 1, non-autoclaved mucin parameters, total conc. 10000
# [10] = simulated with equation 1, pooled data parameters, total conc. 0.5
# [11] = simulated with equation 1, pooled data parameters, total conc. 1
# [12] = simulated with equation 1, pooled data parameters, total conc. 2
# [13] = simulated with equation 1, pooled data parameters, total conc. 4
# [14] = simulated with equation 1, pooled data parameters, total conc. 8
# [15] = simulated with equation 1, pooled data parameters, total conc. 10
# [16] = simulated with equation 1, pooled data parameters, total conc. 50
# [17] = simulated with equation 1, pooled data parameters, total conc. 100
# [18] = simulated with equation 1, pooled data parameters, total conc. 500
# [19] = simulated with equation 1, pooled data parameters, total conc. 1000
# [20] = simulated with equation 1, pooled data parameters, total conc. 5000
# [21] = simulated with equation 1, pooled data parameters, total conc. 10000
smiles,measurement,setting,value
"CC[C@H](C)CCCCC(=O)N[C@@H](CCN)C(=O)N[C@H](C(=O)N[C@@H](CCN)C(=O)N[C@H]1CCNC(=O)[C@H]([C@@H](C)O)NC(=O)[C@H](CCN)NC(=O)[C@H](CCN)NC(=O)[C@H](CC(C)C)NC(=O)[C@@H](Cc2ccccc2)NC(=O)[C@H](CCN)NC1=O)[C@@H](C)O [PMB, polymyxin B] (X1-[Dab]T[Dab][Dab][Dab][dF]L[Dab][Dab]T; lactam 4-C)",Unbound conc.,[1]; [3],0.61
same,fu (95% CI),[1]; [3],6.1 (3.0 - 9.2) %
same,Unbound conc.,[1]; [4],7.08
same,fu (95% CI),[1]; [4],14.2 (10.5 – 17.8) %
same,Unbound conc.,[1]; [5],27.9
same,fu (95% CI),[1]; [5],27.9 (23.8 – 32.1) %
same,Unbound conc.,[1]; [6],293
same,fu (95% CI),[1]; [6],58.6 (54.6 - 62.6) %
same,Unbound conc.,[1]; [7],615
same,fu (95% CI),[1]; [7],61.5 (58.4 – 64.7) %
same,Unbound conc.,[1]; [8],3130
same,fu (95% CI),[1]; [8],62.7 (58.6 – 66.7) %
same,Unbound conc.,[1]; [9],6270
same,fu (95% CI),[1]; [9],62.7 (58.6 - 66.9) %
same,Unbound conc.,[1]; [10],0.03
same,fu (95% CI),[1]; [10],6.1 (2.1 - 10.0) %
same,Unbound conc.,[1]; [11],0.06
same,fu (95% CI),[1]; [11],6.1 (2.1 - 10.0) %
same,Unbound conc.,[1]; [12],0.12
same,fu (95% CI),[1]; [12],6.1 (2.2 - 10.0) %
same,Unbound conc.,[1]; [13],0.25
same,fu (95% CI),[1]; [13],6.1 (2.3 - 10.0) %
same,Unbound conc.,[1]; [14],0.51
same,fu (95% CI),[1]; [14],6.4 (2.7 - 10.0) %
same,Unbound conc.,[1]; [15],0.65
same,fu (95% CI),[1]; [15],6.5 (3.0 - 10.1) %
same,Unbound conc.,[1]; [16],7.62
same,fu (95% CI),[1]; [16],15.2 (10.7 - 19.7) %
same,Unbound conc.,[1]; [17],30.4
same,fu (95% CI),[1]; [17],30.4 (25.6 - 35.2) %
same,Unbound conc.,[1]; [18],296
same,fu (95% CI),[1]; [18],59.2 (55.1 - 63.2) %
same,Unbound conc.,[1]; [19],613
same,fu (95% CI),[1]; [19],61.3 (58.2 - 64.4) %
same,Unbound conc.,[1]; [20],3100
same,fu (95% CI),[1]; [20],62.1 (58.4 - 65.8) %
same,Unbound conc.,[1]; [21],6210
same,fu (95% CI),[1]; [21],62.1 (58.3 - 65.8) %
same,MIC fold-change vs control of respective replicate,"[2]; TK in CAMHB + 1% mucin, PMB 48 mg/L, replicate 2, lpxA Ser224Pro",4
same,MIC fold-change vs control of respective replicate,"[2]; TK in CAMHB + 1% mucin, PMB 135 mg/L, replicate 3, ISAba13 insertion in the promoter of lpxC",8
same,MIC fold-change vs control of respective replicate,"[2]; TK in CAMHB + 1% mucin, PMB 135 mg/L, replicate 4, ISAba13 insertion in the promoter of lpxC",4
same,MIC fold-change vs control of respective replicate,"[2]; TK in CAMHB, PMB 16 mg/L, replicate 1, lpxA Arg258Leu",4
same,MIC fold-change vs control of respective replicate,"[2]; TK in CAMHB, PMB 128 mg/L, replicate 1, lpxA Trp206Arg Thr210Ala",2
same,MIC fold-change vs control of respective replicate,"[2]; TK in CAMHB, PMB 128 mg/L, replicate 2, lpxA Trp206Arg Thr210Ala",0.25
same,Regrowth samples at T30h with ≥fourfold increase in MIC compared with control,"[2]; TK in the absence of mucin, 2/18 samples",11%
same,Regrowth samples at T30h with ≥fourfold increase in MIC compared with control,"[2]; TK in the presence of mucin, 5/26 samples",19%
same,Cases of regrowth associated with an increase in the MIC at T30h,[2]; with and without mucin together,16%
